Assay results: patent US11820766B2, “Monoacylglycerol lipase modulators” (Janssen Pharmaceutica NV, priority 2018, dated 2023)

The compounds below were run against T1, human MGL from HeLa cells (Homo sapiens, UniProt Q99685) (assay: In vitro MGL activity assay: [glycerol-1,3-3H]-oleyl glycerol cleavage by MGL from HeLa cells). Settings: 300 nM [Glycerol-1,3-3H]-oleyl glycerol, one hour.
T1 construct: combining endogenously expressed MGL from HeLa cells with test compounds; endogenous in cells; host or cells: HeLa cells / cell homogenates
T1 sequence (Q99685 1-303): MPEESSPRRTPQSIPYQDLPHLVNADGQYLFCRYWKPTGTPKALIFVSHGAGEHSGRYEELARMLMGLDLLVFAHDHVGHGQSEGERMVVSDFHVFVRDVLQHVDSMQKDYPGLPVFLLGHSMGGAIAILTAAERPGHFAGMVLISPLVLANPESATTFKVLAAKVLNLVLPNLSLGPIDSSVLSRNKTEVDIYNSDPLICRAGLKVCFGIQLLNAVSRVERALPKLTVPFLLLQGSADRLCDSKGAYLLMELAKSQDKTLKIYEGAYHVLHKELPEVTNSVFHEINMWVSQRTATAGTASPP
Assay type: biochemical
Description: MGL is the predominant hydrolase in HeLa cells/cell homogenates.

IC50 | SMILES
330 nM | C[C@H]1c2nn(C)c(-c3cc(F)c(F)c(F)c3)c2CCN1C(=O)c1cccc2c1CCNC2 [Example 574, [(7S)-2,7-Dimethyl-3-(3,4,5-trifluorophenyl)-5,7-dihydro-4H-pyrazolo[3,4-c]pyridin-6-yl]-(1,2,3,4-tetrahydroisoquinolin-5-yl)methanone]
72.7 nM | C[C@H]1c2nn(C)c(-c3cc(F)c(F)c(F)c3)c2CCN1C(=O)c1cccc2c1CNCC2 [Example 575, [(7S)-2,7-Dimethyl-3-(3,4,5-trifluorophenyl)-5,7-dihydro-4H-pyrazolo[3,4-c]pyridin-6-yl]-(1,2,3,4-tetrahydroisoquinolin-8-yl)methanone]
18.9 nM | C[C@H]1c2nn(C)c(-c3cc(F)c(F)c(F)c3)c2CCN1C(=O)c1cccc2c1CCOC2 [Example 576, [(7S)-2,7-Dimethyl-3-(3,4,5-trifluorophenyl)-5,7-dihydro-4H-pyrazolo[3,4-c]pyridin-6-yl]-isochroman-5-yl-methanone]
32.2 nM | C[C@H]1c2nn(C)c(-c3cc(F)c(F)c(F)c3)c2CCN1C(=O)c1ccc2c(c1)COCC2 [Example 577, [(7S)-2,7-Dimethyl-3-(3,4,5-trifluorophenyl)-5,7-dihydro-4H-pyrazolo[3,4-c]pyridin-6-yl]-isochroman-7-yl-methanone]
27.4 nM | C[C@H]1c2nn(C)c(-c3cc(F)c(F)c(F)c3)c2CCN1C(=O)c1ccc2c(c1)CCOC2 [Example 578, [(7S)-2,7-Dimethyl-3-(3,4,5-trifluorophenyl)-5,7-dihydro-4H-pyrazolo[3,4-c]pyridin-6-yl]-isochroman-6-yl-methanone]
8.18 nM | C[C@H]1c2nn(C)c(-c3cc(F)c(F)c(F)c3)c2CCN1C(=O)c1cccc2c1COCC2 [Example 579, [(7S)-2,7-Dimethyl-3-(3,4,5-trifluorophenyl)-5,7-dihydro-4H-pyrazolo[3,4-c]pyridin-6-yl]-isochroman-8-yl-methanone]

The next lines start with the compound.

SMILES | IC50
C[C@H]1c2nn(C)c(-c3cc(F)c(F)c(F)c3)c2CCN1C(=O)c1ccnc2c1OCCC2 [Example 568, 3,4-Dihydro-2H-pyrano[3,2-b]pyridin-8-yl-[(7S)-2,7-dimethyl-3-(3,4,5-trifluorophenyl)-5,7-dihydro-4H-pyrazolo[3,4-c]pyridin-6-yl]methanone] | 9.68 nM
C[C@H]1c2nn(C)c(-c3cc(F)c(F)c(F)c3)c2CCN1C(=O)c1ccnc2c1OCCO2 [Example 569, 2,3-Dihydro-[1,4]dioxino[2,3-b]pyridin-8-yl-[(7S)-2,7-dimethyl-3-(3,4,5-trifluorophenyl)-5,7-dihydro-4H-pyrazolo[3,4-c]pyridin-6-yl]methanone] | 28.7 nM
C[C@H]1c2nn(C)c(-c3cc(F)c(F)c(F)c3)c2CCN1C(=O)c1cnc2c(c1)OCCO2 [Example 570, 2,3-Dihydro-[1,4]dioxino[2,3-b]pyridin-7-yl-[(7S)-2,7-dimethyl-3-(3,4,5-trifluorophenyl)-5,7-dihydro-4H-pyrazolo[3,4-c]pyridin-6-yl]methanone] | 136 nM
C[C@H]1c2nn(C)c(-c3cc(F)c(F)c(F)c3)c2CCN1C(=O)c1cnc2c(c1)OCCN2 [Example 571, 3,4-Dihydro-2H-pyrido[3,2-b][1,4]oxazin-7-yl-[(7S)-2,7-dimethyl-3-(3,4,5-trifluorophenyl)-5,7-dihydro-4H-pyrazolo[3,4-c]pyridin-6-yl]methanone] | 12.7 nM
C[C@H]1c2nn(C)c(-c3cc(F)c(F)c(F)c3)c2CCN1C(=O)c1cnc2c(c1)OCCN2C [Example 572, [(7S)-2,7-Dimethyl-3-(3,4,5-trifluorophenyl)-5,7-dihydro-4H-pyrazolo[3,4-c]pyridin-6-yl]-(4-methyl-2,3-dihydropyrido[3,2-b][1,4]oxazin-7-yl)methanone] | 51.9 nM
C[C@H]1c2nn(C)c(-c3cc(F)c(F)c(F)c3)c2CCN1C(=O)c1cc2c(cn1)OCCC2 [Example 573, 3,4-Dihydro-2H-pyrano[2,3-c]pyridin-6-yl-[(7S)-2,7-dimethyl-3-(3,4,5-trifluorophenyl)-5,7-dihydro-4H-pyrazolo[3,4-c]pyridin-6-yl]methanone] | 242 nM
